Test results: patent US11752156B2, “Compositions and methods for treating hyperproliferative skin disorders” (Athenex HK Innovative Limited, priority 2018, dated 2023)
pIC50: −log10 of the molar value. Several values for one entry are separate records, joined by “and”; a condition that tells them apart may be missing. Equal values may be shown once. Read-outs that look alike come from different tables or passages of the source.

Columns and labels:
[1] = test system: human keratinocyte cell line; experiment: inhibition of human keratinocyte growth, individual dose response, 72 hours, MTT assay; format: cell-based; details: 72 hour exposure
Method: FIG. 4: Inhibition of human keratinocyte growth versus KX01 concentration (treatment duration: 72 hours; cell growth measured using the MTT assay). […] FIG. 5: Inhibition of human keratinocyte growth versus calcipotriol concentration (treatment duration: 72 hours; cell growth measured using the MTT assay). […] A human keratinocyte cell line was used in these studies.

[2] = test system: CCD-1106 KERTr cells; experiment: FITC annexin V / PI apoptosis assay by flow cytometry, 24 hours; format: cell-based, human; details: for late apoptic cells: 24 hours
Method: In addition to growth inhibition, Inventors also investigated the effect of KX01 on apoptosis in keratinocytes. CCD-1106 KERTr cells (1×10^6) were seeded in 60 mm dishes and treated with test compounds at varying concentrations (e.g. KX01: 20 to 500 nM; calcipotriol 50 to 1000 nM) for 24 hours. Cell apoptosis was assessed by using a FITC annexin V apoptosis detection kit (BD Biosciences™) according to manufacturer's instruction. Briefly, cells were collected in 1× binding buffer and incubated with fluorescein isothiocyanate (FITC)-conjugated annexin V and propidium iodide (PI) for 15 minutes at room temperature in the dark, followed by flow cytometry analysis using a LSRFortessa™ flow cytometer (BD Biosciences™).

[3] = test system: CCD 1106 KERTr human keratinocyte cell line; experiment: MTT cell proliferation assay, 72 hours, dark or blue light, keratinocytes; format: cell-based; details: for inhibition at 0.005 µM / inhibition at 0.02 µM / inhibition at 0.08 µM / inhibition at 0.32 µM / inhibition at 1.28 µM: Homo sapiens, read-out: growth inhibition relative to untreated control
Method: The effects of combined treatment with KX01, a vitamin D derivative, and/or blue/UV light exposure were characterized using a cell proliferation assay. Cell proliferation was assessed by using an MTT assay. Cells were seeded in 96-well plate (3,000-5,000 cells per well) and treated with test compounds at varying concentrations (e.g. KX01: 5 to 80 nM; calcipotriol 5 to 1,280 nM) for 72 hours, either in the dark or exposed to blue light irradiation (for 2, 4, or 6 hours). To each well, 10 μl of 3-(4,5-dimethylthiazol-2-yl)-2,5-diphenyltetrazolium bromide (MTT) (RPI Corporation™) solution (5 mg/ml in PBS) was added and incubated at 37° C. for 3 hours. Next, 100 μl of 20% SDS was added to each well. After overnight incubation at 37° C., the absorbance in each well was measured at 570 nm in a microplate reader (Molecular Devices™). The cell growth curve and GI50s were calculate using GraphPad Prism™ 5 software. Tables 13 and 14 show the results of cell growth inhibition studies (expressed as a percentage relative to control cell growth) for treatment with either KX01 or calcipotriol in combination with exposure to blue light. […] The percentage of growth inhibition relative to untreated control is shown. […] The percentage of growth inhibition relative to untreated control is shown. Tables 15 to 18 show the effects of combined treatment with KX01, calcipotriol, and exposure to blue light at 0 hours, 2 hours, 4 hours, and 6 hours of light exposure (respectively). Values are expressed as the percentage of growth inhibition relative to cells grown under control conditions (0 hours blue light, [KX01]=0, [calcipotriol]=0). […] Results are shown below in Tables 27 to Table 30, which show results from 0, 2, 4, and 6 hours of blue light exposure (respectively). Values are expressed as the percentage of growth inhibition relative to cells grown under control conditions (0 hours blue light, [KX01]=0, [calcipotriol]=0).

[4] = test system: human keratinocytes in culture (cell line CCD-1106 KERTr); experiment: cell viability / cell growth of human keratinocytes in culture, KX01, calcipotriol and fixed-ratio combinations; format: cell-based; parameters: cell growth (cell viability): unit not given here
Source text: Typical data from studies of the effects of compound KX01 provided in combination with calcipotriol on growth of human keratinocytes in culture (cell line CCD-1106 KERTr) are shown in FIGS. 1 to 3 and Tables 1 to 6. FIG. 1 and Tables 1 and 2 show the degree of growth inhibition found in a typical study performed with KX01 and calcipotriol at a 1:5 ratio.

C=C1/C(=C\C=C2/CCC[C@]3(C)[C@@H]([C@H](C)/C=C/[C@@H](O)C4CC4)CC[C@@H]23)C[C@@H](O)C[C@@H]1O [Calcipotriol, calcipotriol]
pIC50 [1]: 7.02 | effect on apoptosis compared with control cells ([2]; 200 nm calcipotriol): not distinguishable from that of control cells receiving no drug treatment | late apoptic cells ([2]; calcipotriol 50 nM): 2.41% | late apoptic cells ([2]; calcipotriol 200 nM): 2.06% | late apoptic cells ([2]; calcipotriol 500 nM): 4.13% | late apoptic cells ([2]; calcipotriol 1,000 nM): 4.19% | inhibition at 0.005 µM ([3]; CCD-1106, 0 h, calcipotriol 5 nM, blue light 0 h): 9% | inhibition at 0.02 µM ([3]; CCD-1106, 0 h, calcipotriol 20 nM, blue light 0 h): 24% | inhibition at 0.08 µM ([3]; CCD-1106, 0 h, calcipotriol 80 nM, blue light 0 h): 45% | inhibition at 0.32 µM ([3]; CCD-1106, 0 h, calcipotriol 320 nM, blue light 0 h): 48% | inhibition at 1.28 µM ([3]; CCD-1106, 0 h, calcipotriol 1,280 nM, blue light 0 h): 43% | inhibition at 0.005 µM ([3]; CCD-1106, 2 h, calcipotriol 5 nM, blue light 2 h): 32% | inhibition at 0.02 µM ([3]; CCD-1106, 2 h, calcipotriol 20 nM, blue light 2 h): 39% | inhibition at 0.08 µM ([3]; CCD-1106, 2 h, calcipotriol 80 nM, blue light 2 h): 55% | inhibition at 0.32 µM ([3]; CCD-1106, 2 h, calcipotriol 320 nM, blue light 2 h): 66% | inhibition at 1.28 µM ([3]; CCD-1106, 2 h, calcipotriol 1,280 nM, blue light 2 h): 62% | inhibition at 0.005 µM ([3]; CCD-1106, 4 h, calcipotriol 5 nM, blue light 4 h): 53% | inhibition at 0.02 µM ([3]; CCD-1106, 4 h, calcipotriol 20 nM, blue light 4 h): 58% | inhibition at 0.08 µM ([3]; CCD-1106, 4 h, calcipotriol 80 nM, blue light 4 h): 70% | inhibition at 0.32 µM ([3]; CCD-1106, 4 h, calcipotriol 320 nM, blue light 4 h): 71% | inhibition at 1.28 µM ([3]; CCD-1106, 4 h, calcipotriol 1,280 nM, blue light 4 h): 69% | inhibition at 0.005 µM ([3]; CCD-1106, 6 h, calcipotriol 5 nM, blue light 6 h): 56% | inhibition at 0.02 µM ([3]; CCD-1106, 6 h, calcipotriol 20 nM, blue light 6 h): 59% | inhibition at 0.08 µM ([3]; CCD-1106, 6 h, calcipotriol 80 nM, blue light 6 h): 71% | inhibition at 0.32 µM ([3]; CCD-1106, 6 h, calcipotriol 320 nM, blue light 6 h): 72% | inhibition at 1.28 µM ([3]; CCD-1106, 6 h, calcipotriol 1,280 nM, blue light 6 h): 66% | growth inhibition relative to untreated control ([3]; calcipotriol 5 nM, blue light 0 h): 6% | growth inhibition relative to untreated control ([3]; calcipotriol 5 nM, blue light 2 h): 33% | growth inhibition relative to untreated control ([3]; calcipotriol 5 nM, blue light 4 h): 47% | growth inhibition relative to untreated control ([3]; calcipotriol 5 nM, blue light 6 h): 51% | growth inhibition relative to untreated control ([3]; calcipotriol 20 nM, blue light 0 h): 17% | growth inhibition relative to untreated control ([3]; calcipotriol 20 nM, blue light 4 h): 52% | growth inhibition relative to untreated control ([3]; calcipotriol 80 nM, blue light 0 h): 35% | growth inhibition relative to untreated control ([3]; calcipotriol 80 nM, blue light 4 h): 64% | growth inhibition relative to untreated control ([3]; calcipotriol 80 nM, blue light 6 h): 67% | growth inhibition relative to untreated control ([3]; calcipotriol 320 nM, blue light 2 h): 60% | growth inhibition relative to untreated control ([3]; calcipotriol 320 nM, blue light 4 h): 67% | growth inhibition relative to untreated control ([3]; calcipotriol 1,280 nM, blue light 0 h): 37% | growth inhibition relative to untreated control ([3]; calcipotriol 1,280 nM, blue light 4 h): 63% | growth inhibition relative to untreated control ([3]; calcipotriol 1,280 nM, blue light 6 h): 67% | effect of blue light exposure with the drug on cell growth inhibition ([3]; for example 6 hours of blue light with 10 nm KX01): Synergistic effects | GI50 [4]: 0.31 µM and 0.339 µM | GI50 ([4]; Homo sapiens, CCD-1106): 0.265 µM | viability at 0.003 µM ([4]; Homo sapiens, CCD-1106, concentration 3 nM): 94% | viability at 0.009 µM ([4]; Homo sapiens, CCD-1106, concentration 9 nM): 89.9% | viability at 0.027 µM ([4]; Homo sapiens, CCD-1106, concentration 27 nM): 70.5% | viability at 0.081 µM ([4]; Homo sapiens, CCD-1106, concentration 81 nM): 49.4% | viability at 0.243 µM ([4]; Homo sapiens, CCD-1106, concentration 243 nM): 47.3% | viability at 0.729 µM ([4]; Homo sapiens, CCD-1106, concentration 729 nM): 47% | viability at 2.187 µM ([4]; Homo sapiens, CCD-1106, concentration 2187 nM): 44.8% | viability at 6.561 µM ([4]; Homo sapiens, CCD-1106, concentration 6561 nM): 19.2% | cell growth (cell viability) ([4]; concentration 3 nM, 0.003 µM): 95.3 and 96.1 | cell growth (cell viability) ([4]; concentration 9 nM, 0.009 µM): 88.8 and 89.7 | cell growth (cell viability) ([4]; concentration 27 nM, 0.027 µM): 72.5 and 70.1 | cell growth (cell viability) ([4]; concentration 81 nM, 0.081 µM): 53.2 and 52.8 | cell growth (cell viability) ([4]; concentration 243 nM, 0.243 µM): 47.7 and 51.0 | cell growth (cell viability) ([4]; concentration 729 nM, 0.729 µM): 47.1 and 48.7 | cell growth (cell viability) ([4]; concentration 2187 nM, 2.187 µM): 46.7 and 48.3 | cell growth (cell viability) ([4]; concentration 6561 nM, 6.561 µM): 25.2 and 26.5
